# “Also recorded” adds a separate entry of the source. Positions of bridges follow the written chain, without caps; N, C: chain ends. Non-standard residues stand in square brackets, D forms with d. No end group written: not given here. Nle = CCCC[C@H](N)C(=O)O; dDap = NC[C@@H](N)C(=O)O; Dap = NC[C@H](N)C(=O)O; Nal = naphthylalanine
# Experiments:
# [1] = system: NFκB reporter cells or IMG microglial cells; test: Cytotoxicity assay (CellTiter-Glo Luminescent Cell Viability Assay); details: up to 12.5 μg/ml, 24 hours, NFκB reporter cells and IMG microglial cells, FIG. 11
# Description: IMG cells were treated with peptide derivatives at concentrations at or exceeding those tested for the activity assays (FIGS. 5-7) for 24 hours.
# NFκB = NFκB reporter assay (SEAP) in THP1-XBlue-MD2-CD14 cells after LPS; assay type: cell-based; details: for activity in reducing NFκB activation: LPS 5 ng/ml 24 hours; for NFκB inhibition activity: 50 μg/ml, LPS 5 ng/ml overnight, compared to SP163M (and SP22); for EC50 NFκB: NFκB reporter cells, LPS 5 ng/ml
# Description: The NFκB inducible Secreted Embryonic Alkaline Phosphatase (SEAP) was measured in the supernatant and read for absorbance.
# (§1) Various SERPIN peptide derivatives were screened in vitro for their ability to reduce TNFα and NFκB secretion via LRP-1 activation. The NFκB reporter cells (THP1-XBlue-MD2-CD14 cells) were treated with each peptide derivative at various concentrations, up to 100 μg/ml before being insulted with LPS (5 ng/ml) and incubated overnight. The NFκB inducible Secreted Embryonic Alkaline Phosphatase (SEAP) was measured in the supernatant and read for absorbance. IMG Microglial cells were treated with each peptide derivative at various concentrations, up to 100 μg/ml before LPS (100 ng/ml) stimulation for 24 hours. An ELISA was used to measure TNFα in the supernatant ([…]).
# TNFα = TNFα secretion in IMG microglial cells after LPS (ELISA); assay type: cell-based; details: for activity in reducing TNFα activation: A1-A15 screen, 50 or 100 μg/ml, FIG. 5; for activity in reducing TNFα activation / activity in reducing TNFα: LPS 100 ng/ml 24 hours; for activity in reducing TNFα: FIG. 6A/7, up to 50 μg/mL, versus SP163M, SA7; for EC50 TNFα: IMG microglial cells, LPS 100 ng/ml, 24 hours
# Description: In the NFκB reporter cells, the NFκB inducible Secreted Embryonic Alkaline Phosphatase (SEAP) was measured in the supernatant. TNFα secretion in the supernatant was measured via ELISA.
# as §1
# IL-6 = IL-6 secretion in IMG microglial cells after LPS (ELISA); assay type: cell-based; details: for EC50 IL-6: IMG microglial cells, LPS 100 ng/ml, 24 hours
# [2] = system: OVA induced allergic asthma; test: OVA induced allergic asthma mouse model, lung homogenate; assay type: in vivo, mice
# From the text: Infiltration of immune cells into the lung likely account for the increase in total protein levels in the lung.
# [3] = biological target: low-density lipoprotein receptor related protein-1 (LRP-1) on IMG microglial cells (UniProt Q91ZX7 20-4545, limits assumed); test: cell-based or functional assay
# [4] = biological target: low-density lipoprotein receptor related protein-1 (LRP-1) on THP1-XBlue-MD2-CD14 NFκB reporter cells (UniProt Q07954 20-4544); test: cell-based or functional assay
# serine protease TMPRSS2 = serine protease TMPRSS2 (UniProt O15393 1-492, limits assumed); test: cell-based or functional assay
# [5] = FIG. 6B/7, up to 50 μg/mL, versus SP163M, SA7
# low-density lipoprotein receptor related protein-1 (LRP-1) on IMG microglial cells, sequence (Q91ZX7 20-4545 limits assumed): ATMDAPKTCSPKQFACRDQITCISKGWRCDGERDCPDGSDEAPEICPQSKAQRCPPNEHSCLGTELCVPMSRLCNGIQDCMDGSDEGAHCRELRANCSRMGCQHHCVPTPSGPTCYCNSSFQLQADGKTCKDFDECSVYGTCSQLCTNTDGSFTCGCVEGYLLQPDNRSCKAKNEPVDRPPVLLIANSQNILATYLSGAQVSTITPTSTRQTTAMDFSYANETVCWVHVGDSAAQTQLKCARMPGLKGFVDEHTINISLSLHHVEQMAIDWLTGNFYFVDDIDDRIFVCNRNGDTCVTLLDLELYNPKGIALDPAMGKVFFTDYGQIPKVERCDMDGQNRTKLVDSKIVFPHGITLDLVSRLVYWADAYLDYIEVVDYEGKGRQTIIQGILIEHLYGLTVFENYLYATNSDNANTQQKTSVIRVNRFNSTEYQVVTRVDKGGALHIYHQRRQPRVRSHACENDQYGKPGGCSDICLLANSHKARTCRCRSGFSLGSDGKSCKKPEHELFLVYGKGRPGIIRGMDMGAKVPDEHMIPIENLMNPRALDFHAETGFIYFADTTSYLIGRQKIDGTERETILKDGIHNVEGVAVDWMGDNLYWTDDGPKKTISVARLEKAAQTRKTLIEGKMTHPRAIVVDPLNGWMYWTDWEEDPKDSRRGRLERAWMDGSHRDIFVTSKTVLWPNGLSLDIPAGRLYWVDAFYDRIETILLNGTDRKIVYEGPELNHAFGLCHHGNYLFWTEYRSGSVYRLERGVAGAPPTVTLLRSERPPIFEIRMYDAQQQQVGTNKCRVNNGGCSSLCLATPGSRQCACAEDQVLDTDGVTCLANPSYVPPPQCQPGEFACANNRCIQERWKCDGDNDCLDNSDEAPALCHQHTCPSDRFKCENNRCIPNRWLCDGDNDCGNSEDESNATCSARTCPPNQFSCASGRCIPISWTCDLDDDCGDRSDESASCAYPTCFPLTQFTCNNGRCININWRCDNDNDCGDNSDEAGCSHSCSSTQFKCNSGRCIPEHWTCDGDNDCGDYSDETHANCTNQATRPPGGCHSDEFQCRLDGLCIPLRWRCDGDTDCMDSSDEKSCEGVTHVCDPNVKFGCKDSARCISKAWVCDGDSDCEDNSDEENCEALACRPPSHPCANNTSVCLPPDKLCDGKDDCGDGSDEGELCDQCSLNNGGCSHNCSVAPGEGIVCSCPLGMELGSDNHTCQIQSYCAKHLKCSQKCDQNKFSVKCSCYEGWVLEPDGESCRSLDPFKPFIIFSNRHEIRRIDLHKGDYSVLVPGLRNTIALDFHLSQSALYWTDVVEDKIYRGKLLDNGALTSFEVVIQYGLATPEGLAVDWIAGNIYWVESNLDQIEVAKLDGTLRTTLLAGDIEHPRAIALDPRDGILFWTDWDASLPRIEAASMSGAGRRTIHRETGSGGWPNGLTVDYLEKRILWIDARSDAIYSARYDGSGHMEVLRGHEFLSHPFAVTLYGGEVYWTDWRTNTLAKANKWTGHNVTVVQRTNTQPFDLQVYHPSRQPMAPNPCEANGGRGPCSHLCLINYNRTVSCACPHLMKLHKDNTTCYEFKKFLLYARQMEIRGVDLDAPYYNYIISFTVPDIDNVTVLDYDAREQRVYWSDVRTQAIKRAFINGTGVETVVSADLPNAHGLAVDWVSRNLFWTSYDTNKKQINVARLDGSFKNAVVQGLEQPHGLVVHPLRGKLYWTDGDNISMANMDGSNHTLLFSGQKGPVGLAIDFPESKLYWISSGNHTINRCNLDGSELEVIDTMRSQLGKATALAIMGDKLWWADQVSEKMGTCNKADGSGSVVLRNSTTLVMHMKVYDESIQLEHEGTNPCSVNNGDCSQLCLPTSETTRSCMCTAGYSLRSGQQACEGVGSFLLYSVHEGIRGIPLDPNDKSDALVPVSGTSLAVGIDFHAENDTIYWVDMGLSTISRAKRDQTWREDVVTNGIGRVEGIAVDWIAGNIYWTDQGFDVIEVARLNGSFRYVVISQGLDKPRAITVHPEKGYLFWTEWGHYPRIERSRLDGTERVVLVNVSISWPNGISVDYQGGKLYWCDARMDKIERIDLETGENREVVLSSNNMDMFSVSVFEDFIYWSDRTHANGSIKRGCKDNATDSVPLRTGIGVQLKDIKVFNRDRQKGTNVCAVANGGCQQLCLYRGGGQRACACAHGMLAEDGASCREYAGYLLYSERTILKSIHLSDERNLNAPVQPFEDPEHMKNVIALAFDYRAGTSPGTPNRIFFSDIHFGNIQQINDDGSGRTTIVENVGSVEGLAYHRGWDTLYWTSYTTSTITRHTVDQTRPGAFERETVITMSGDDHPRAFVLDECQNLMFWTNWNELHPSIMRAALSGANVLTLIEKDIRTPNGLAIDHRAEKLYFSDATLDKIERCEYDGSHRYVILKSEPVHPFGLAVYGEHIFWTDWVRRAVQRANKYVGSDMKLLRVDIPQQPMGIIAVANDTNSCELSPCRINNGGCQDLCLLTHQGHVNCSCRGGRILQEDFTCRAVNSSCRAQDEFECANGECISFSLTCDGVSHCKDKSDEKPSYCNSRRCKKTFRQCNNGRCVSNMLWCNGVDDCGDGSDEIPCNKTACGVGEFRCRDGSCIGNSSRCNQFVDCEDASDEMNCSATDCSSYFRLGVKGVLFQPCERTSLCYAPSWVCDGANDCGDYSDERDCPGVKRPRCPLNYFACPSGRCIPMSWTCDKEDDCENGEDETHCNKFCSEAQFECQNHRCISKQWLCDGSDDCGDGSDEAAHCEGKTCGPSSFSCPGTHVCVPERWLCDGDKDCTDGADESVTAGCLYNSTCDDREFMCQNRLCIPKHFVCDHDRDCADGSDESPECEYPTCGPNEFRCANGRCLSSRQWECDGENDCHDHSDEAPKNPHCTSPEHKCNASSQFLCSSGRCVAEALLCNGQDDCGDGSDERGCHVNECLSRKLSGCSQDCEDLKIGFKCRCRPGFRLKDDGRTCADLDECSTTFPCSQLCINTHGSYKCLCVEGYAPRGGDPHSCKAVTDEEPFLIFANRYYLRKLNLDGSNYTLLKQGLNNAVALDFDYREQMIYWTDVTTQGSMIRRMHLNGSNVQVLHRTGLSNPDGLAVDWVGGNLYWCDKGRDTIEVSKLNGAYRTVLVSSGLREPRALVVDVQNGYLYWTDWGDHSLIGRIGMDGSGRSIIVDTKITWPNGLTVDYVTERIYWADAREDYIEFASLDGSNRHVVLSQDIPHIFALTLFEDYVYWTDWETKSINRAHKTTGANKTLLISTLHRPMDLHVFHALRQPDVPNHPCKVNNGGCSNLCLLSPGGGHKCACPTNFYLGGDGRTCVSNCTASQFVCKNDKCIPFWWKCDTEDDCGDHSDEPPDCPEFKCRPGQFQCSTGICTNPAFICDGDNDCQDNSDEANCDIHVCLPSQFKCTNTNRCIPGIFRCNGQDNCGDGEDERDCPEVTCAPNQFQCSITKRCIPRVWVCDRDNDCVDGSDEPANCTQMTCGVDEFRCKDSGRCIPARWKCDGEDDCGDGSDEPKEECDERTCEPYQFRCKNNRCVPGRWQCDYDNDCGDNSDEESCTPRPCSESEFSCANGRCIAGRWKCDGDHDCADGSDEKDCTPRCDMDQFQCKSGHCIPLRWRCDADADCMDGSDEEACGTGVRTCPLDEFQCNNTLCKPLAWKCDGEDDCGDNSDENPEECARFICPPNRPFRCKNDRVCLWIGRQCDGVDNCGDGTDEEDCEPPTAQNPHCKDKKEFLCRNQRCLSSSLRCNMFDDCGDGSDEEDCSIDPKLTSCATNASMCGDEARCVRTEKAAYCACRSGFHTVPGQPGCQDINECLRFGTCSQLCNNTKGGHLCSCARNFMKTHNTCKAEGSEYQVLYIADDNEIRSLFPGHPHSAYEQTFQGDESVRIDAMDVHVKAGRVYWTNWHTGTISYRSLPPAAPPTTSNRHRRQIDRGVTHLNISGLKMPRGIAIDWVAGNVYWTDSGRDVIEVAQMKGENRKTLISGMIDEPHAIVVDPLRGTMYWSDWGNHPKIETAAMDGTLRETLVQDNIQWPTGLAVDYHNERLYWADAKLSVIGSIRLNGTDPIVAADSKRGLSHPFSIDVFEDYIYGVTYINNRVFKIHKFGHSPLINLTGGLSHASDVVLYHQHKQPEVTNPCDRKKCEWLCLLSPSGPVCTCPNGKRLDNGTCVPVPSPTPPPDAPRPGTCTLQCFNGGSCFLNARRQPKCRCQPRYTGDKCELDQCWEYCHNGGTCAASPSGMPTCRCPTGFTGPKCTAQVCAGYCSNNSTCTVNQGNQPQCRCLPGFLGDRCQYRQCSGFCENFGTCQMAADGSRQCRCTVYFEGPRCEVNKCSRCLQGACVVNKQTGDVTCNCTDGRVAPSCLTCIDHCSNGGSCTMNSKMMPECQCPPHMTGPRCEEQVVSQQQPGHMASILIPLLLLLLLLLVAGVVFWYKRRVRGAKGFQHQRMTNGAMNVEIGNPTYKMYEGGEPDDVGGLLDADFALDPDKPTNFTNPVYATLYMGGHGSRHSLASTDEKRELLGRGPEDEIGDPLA
# serine protease TMPRSS2, sequence (O15393 whole entry): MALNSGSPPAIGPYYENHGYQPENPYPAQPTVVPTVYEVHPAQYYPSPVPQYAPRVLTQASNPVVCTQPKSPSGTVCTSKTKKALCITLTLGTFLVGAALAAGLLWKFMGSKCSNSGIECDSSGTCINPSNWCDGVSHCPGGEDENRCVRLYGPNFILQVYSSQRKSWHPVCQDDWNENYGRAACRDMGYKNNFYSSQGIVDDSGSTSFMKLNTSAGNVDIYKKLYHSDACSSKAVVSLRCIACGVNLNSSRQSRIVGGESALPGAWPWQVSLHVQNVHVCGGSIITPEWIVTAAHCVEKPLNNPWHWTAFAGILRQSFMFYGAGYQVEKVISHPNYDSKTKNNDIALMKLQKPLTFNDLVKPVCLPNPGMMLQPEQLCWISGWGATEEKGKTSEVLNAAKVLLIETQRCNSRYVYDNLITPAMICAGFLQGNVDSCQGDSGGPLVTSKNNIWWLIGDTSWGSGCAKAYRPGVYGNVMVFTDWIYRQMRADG
molecule,measurement,setting,value
HN- RRRFT[Nal]]LD (cyclic) (cyclo(RRRFT[Nal]LD)) [Peptide A3-1],cytotoxic effects,[1],no cytotoxic effects
"HN- RRRFTWL[dS]D (cyclic) (not fully specified (bridges); printed as HN- RRRFTWL[dS]D (cyclic); also: cyclic, mode of cyclisation not given here) [Peptide A3-16]",cytotoxic effects,[1],no cytotoxic effects
"HN- RRRFVFL[dDap]D (cyclic) (not fully specified (bridges); printed as HN- RRRFVFL[dDap]D (cyclic); also: cyclic, ring not given here) [Peptide A3-10]",activity in reducing NFκB activation,"NFκB; FIG. 9, 1.56 to 12.5 μg/ml",superior activities in reducing NFκB activation
Ac-EEEVKFNKPFVFL[Nle]EEE [SA5],NFκB inhibition activity,NFκB,minimal NFκB inhibition activity
Ac-HHHPFVFLMHHH [SA1],NFκB inhibition activity,NFκB,minimal NFκB inhibition activity
Ac-RRRCPFVFL[Nle]CRRR (cysteine pairing not given here) [SA6],NFκB inhibition activity,NFκB,improved activity in NFκB inhibition
Ac-RRRDFVFL[Nle][Dap] (also: cyclic (positions not given here)) [Peptide A10],activity in reducing TNFα activation,TNFα,improved activities in reducing TNFα activation
Ac- RRR[Dap]FT[Nal]L[Nle]D (cyclic) [Peptide A2-1],activity in reducing NFκB activation,NFκB; [5],superior activities
same,EC50 NFκB,NFκB,5.77 µg/mL
same,EC50 IL-6,IL-6,9.644 µg/mL
same,activity in reducing TNFα,TNFα,superior activities in reducing TNFα
same,EC50 TNFα,TNFα,12.99 µg/mL
Ac-HHHPFVFL[Nle]HHH [SA2],NFκB inhibition activity,NFκB,minimal NFκB inhibition activity
HN-RRRFVFL[dS]D (cyclic) (RRRFVFLSD; not fully specified; D-residues; cyclised or stapled) [Peptide A2-5],activity in reducing NFκB activation,NFκB; [5],superior activities
same,activity in reducing TNFα,TNFα,superior activities in reducing TNFα
same,TSLP level in lung homogenate,"[2]; compared to ova-induced vehicle treated mice, p=0.026",significantly lower levels of TSLP
same,total protein levels in the lung,"[2]; compared to vehicle treated animals, p<0.005",significantly decreased
same,"TH-2 mediated cytokines IL-5, IL-4 and IL-13 in lung tissue",[2]; compared with vehicle treated mice,"reduction of TH-2 mediated cytokines IL-5, IL-4 and IL-13"
Ac- RRRCFV[Nal]L[Nle]C (cyclic) [Peptide A5],activity in reducing TNFα activation,TNFα,improved activities in reducing TNFα activation
HN- [rK]RRFT[Nal]]LD (cyclic) ([rK]RRFT[Nal]LD; lactam 1-8) [Peptide A3-2],cytotoxic effects,[1],no cytotoxic effects
Ac-RRRCFTFL[Nle]C (also: cyclic (positions not given here)) [Peptide A8],activity in reducing TNFα activation,TNFα,improved activities in reducing TNFα activation
Ac-KKKPFVFL[Nle]KKK [SA4],NFκB inhibition activity,NFκB,minimal NFκB inhibition activity
HN-RRRFVFLD (cyclic) (not fully specified; cyclised or stapled) [Peptide A2-4],activity in reducing NFκB activation,NFκB; [5],superior activities
same,activity in reducing TNFα,TNFα,superior activities in reducing TNFα
HN-RRRFVFL[Nle]D (cyclic) [Peptide A15],EC50 NFκB,NFκB,5.053 µg/mL
same,EC50 IL-6,IL-6,32.39 µg/mL
same,activity in reducing TNFα activation,TNFα,improved activities in reducing TNFα activation
same,EC50 TNFα,TNFα,36.75 µg/mL
HN-RRRFT[Nal]L[Nle]D (cyclic) [Peptide A2-2],activity in reducing NFκB activation,NFκB; [5],superior activities
same,activity in reducing TNFα,TNFα,superior activities in reducing TNFα
HN- RRRFT[Nal]L[dS]D (cyclic) [Peptide A3-15],cytotoxic effects,[1],no cytotoxic effects
HN- RRRAT[Nal]L[NIe]D (cyclic) [Peptide A3-14],activity in reducing NFκB activation,"NFκB; FIG. 9, 1.56 to 12.5 μg/ml",superior activities in reducing NFκB activation
same,EC50 NFκB,NFκB,3.775 µg/mL
same,cytotoxic effects,[1],no cytotoxic effects
same,activity in reducing IL-6 secretion,"IL-6; FIG. 10, up to 12.5 μg/ml, LPS 100 ng/ml 24 hours",superior activities in reducing IL-6 secretion
same,EC50 IL-6,IL-6,0.605 µg/mL
same,EC50 TNFα,TNFα,6 µg/mL
Ac-RRRPFVFL[Nle]RRR [SA3],NFκB inhibition activity,NFκB,improved activity in NFκB inhibition; also recorded: more effective in reducing NFκB activation
"RRRAT[Nal]L[Nle]D (not fully specified (bridges); printed as HN- RRRAT[Nal]L[NIe]D (cyclic); also: cyclic, ring not given here) [SERPIN peptide derivative A3-14, HN-RRRAT[Nal]L[Nle]D (cyclic)]","EC50, IL-6 (IMG microglial cells, LPS, ELISA)",[3],0.605 µg/mL
same,"EC50, TNFα (IMG microglial cells, LPS, ELISA)",[3],6 µg/mL
same,"EC50, NFκB (reduction of NFκB activation, SEAP reporter cells, LPS)",[4],3.77 µg/mL
"Ac-RRRKFT[Nal]LD (lactam 4-9) [SERPIN peptide derivative A3-7, Ac-RRRKFT[Nal]LD (cyclic)]","EC50, IL-6 (IMG microglial cells, LPS, ELISA)",[3],3.65 µg/mL
same,"EC50, NFκB (reduction of NFκB activation, SEAP reporter cells, LPS)",[4],22.4 µg/mL
"RRRFVFLAD (not fully specified; cyclic (HN- at the N-terminus (so in the source))) [SERPIN peptide derivative A2-3, HN-RRRFVFLAD (cyclic)]","EC50, IL-6 (IMG microglial cells, LPS, ELISA)",[3],3.38 µg/mL
same,"EC50, TNFα (IMG microglial cells, LPS, ELISA)",[3],11.8 µg/mL
same,"EC50, NFκB (reduction of NFκB activation, SEAP reporter cells, LPS)",[4],2.65 µg/mL
"Ac-RRR[Dap]FT[Nal]L[Nle]D [SERPIN peptide derivative A2-1, Ac-RRR[Dap]FT[Nal]L[Nle]D (cyclic)]","EC50, IL-6 (IMG microglial cells, LPS, ELISA)",[3],9.64 µg/mL
same,"EC50, TNFα (IMG microglial cells, LPS, ELISA)",[3],13 µg/mL
same,"EC50, NFκB (reduction of NFκB activation, SEAP reporter cells, LPS)",[4],5.77 µg/mL
"RRRFVFLXD (not fully specified; Nle (norleucine) at position 8; cyclic: head-to-tail linker between the amino group of the N-terminal Arg and the side-chain carboxylic acid of the C-terminal Asp, ring closing length 12 C-C bonds) [SERPIN peptide derivative A15, HN-RRRFVFL[Nle]D (cyclic)]","EC50, IL-6 (IMG microglial cells, LPS, ELISA)",[3],32.4 µg/mL
same,"EC50, TNFα (IMG microglial cells, LPS, ELISA)",[3],36.8 µg/mL
same,"EC50, NFκB (reduction of NFκB activation, SEAP reporter cells, LPS)",[4],5.05 µg/mL
"RRRFVFLD (not fully specified; cyclic (HN- at the N-terminus (so in the source))) [SERPIN peptide derivative A2-4, HN-RRRFVFLD (cyclic)]","EC50, IL-6 (IMG microglial cells, LPS, ELISA)",[3],11.3 µg/mL
same,"EC50, TNFα (IMG microglial cells, LPS, ELISA)",[3],12.5 µg/mL
same,"EC50, NFκB (reduction of NFκB activation, SEAP reporter cells, LPS)",[4],5.25 µg/mL
VKFNKPFVFLMIEQNTK [SERPIN peptide SP16 (VKFNKPFVFLMIEQNTK)],"EC50, TNFα (IMG microglial cells, LPS, ELISA)",[3],~618 µg/mL
same,"EC50, NFκB (reduction of NFκB activation, SEAP reporter cells, LPS)",[4],152 µg/mL
"RRRFVFLSD (not fully specified; D-Ser at position 8; cyclic (HN- at the N-terminus (so in the source))) [SERPIN peptide derivative A2-5, HN-RRRFVFL[dS]D (cyclic)]","EC50, IL-6 (IMG microglial cells, LPS, ELISA)",[3],1.4 µg/mL
same,"EC50, TNFα (IMG microglial cells, LPS, ELISA)",[3],2.39 µg/mL
same,"EC50, NFκB (reduction of NFκB activation, SEAP reporter cells, LPS)",[4],1.47 µg/mL
"Ac-RRRCPFVFL[Nle]C (disulfide 4-11 (inferred)) [SERPIN peptide derivative SA7, Ac-RRRCPFVFL[Nle]C (cyclic)]","EC50, IL-6 (IMG microglial cells, LPS, ELISA)",[3],318 µg/mL
same,"EC50, TNFα (IMG microglial cells, LPS, ELISA)",[3],124 µg/mL
same,"EC50, NFκB (reduction of NFκB activation, SEAP reporter cells, LPS)",[4],470 µg/mL
same,"IC50, protease TMPRSS2 activity in an overexpressing cell system",serine protease TMPRSS2,0.083 µg/mL
"RRRFVFLXD (not fully specified; D-Dap at position 8; cyclic (HN- at the N-terminus (so in the source))) [SERPIN peptide derivative A3-10, HN-RRRFVFL[dDap]D (cyclic)]","EC50, IL-6 (IMG microglial cells, LPS, ELISA)",[3],58.5 µg/mL
same,"EC50, TNFα (IMG microglial cells, LPS, ELISA)",[3],34.6 µg/mL
same,"EC50, NFκB (reduction of NFκB activation, SEAP reporter cells, LPS)",[4],2.16 µg/mL

# From patent US20250353898A1, “SERPIN PEPTIDE DERIVATIVES AND METHODS OF USING THE SAME” (priority 2022, published 2025)
